Here are results for 18 molecules from patent US20230141603A1, “BENZODIAZEPINE DERIVATIVES AS GABA A GAMMA1 PAM” (Hoffmann-La Roche Inc., priority 2021, published 2023).

One assay deals with T1, h-GABAA α1β2γ1 (Homo sapiens, UniProt P14867+Q8N1C3).
T1 construct: expressed in transfected cells; host or cells: HEK293F cells (ThermoFisher R79007), membranes
T1 sequence (P14867 28-456): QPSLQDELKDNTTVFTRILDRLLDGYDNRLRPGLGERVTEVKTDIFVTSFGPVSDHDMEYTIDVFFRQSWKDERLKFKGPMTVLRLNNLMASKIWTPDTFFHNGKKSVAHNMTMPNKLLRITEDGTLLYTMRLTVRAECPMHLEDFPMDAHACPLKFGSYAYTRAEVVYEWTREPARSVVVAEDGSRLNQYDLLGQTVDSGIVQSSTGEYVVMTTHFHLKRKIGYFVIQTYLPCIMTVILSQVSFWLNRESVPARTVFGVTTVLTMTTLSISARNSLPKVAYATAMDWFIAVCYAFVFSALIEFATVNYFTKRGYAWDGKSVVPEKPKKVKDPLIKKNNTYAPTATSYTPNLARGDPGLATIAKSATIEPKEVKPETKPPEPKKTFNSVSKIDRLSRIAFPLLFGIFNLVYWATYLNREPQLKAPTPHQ
T1 sequence (P47870 25-512 partner limits assumed): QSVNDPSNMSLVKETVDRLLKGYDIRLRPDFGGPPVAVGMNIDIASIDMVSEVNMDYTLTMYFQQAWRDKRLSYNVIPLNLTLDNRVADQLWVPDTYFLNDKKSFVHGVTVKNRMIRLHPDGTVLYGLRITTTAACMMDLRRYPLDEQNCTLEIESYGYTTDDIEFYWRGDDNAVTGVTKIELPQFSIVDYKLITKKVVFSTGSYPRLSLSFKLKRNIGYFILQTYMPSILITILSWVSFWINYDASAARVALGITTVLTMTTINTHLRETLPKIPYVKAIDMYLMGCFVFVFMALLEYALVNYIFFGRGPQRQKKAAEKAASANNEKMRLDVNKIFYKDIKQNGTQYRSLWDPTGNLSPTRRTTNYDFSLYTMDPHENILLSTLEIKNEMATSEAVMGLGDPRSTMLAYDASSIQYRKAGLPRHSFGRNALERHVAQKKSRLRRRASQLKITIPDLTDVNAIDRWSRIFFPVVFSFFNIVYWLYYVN
T1 sequence (Q8N1C3 36-465): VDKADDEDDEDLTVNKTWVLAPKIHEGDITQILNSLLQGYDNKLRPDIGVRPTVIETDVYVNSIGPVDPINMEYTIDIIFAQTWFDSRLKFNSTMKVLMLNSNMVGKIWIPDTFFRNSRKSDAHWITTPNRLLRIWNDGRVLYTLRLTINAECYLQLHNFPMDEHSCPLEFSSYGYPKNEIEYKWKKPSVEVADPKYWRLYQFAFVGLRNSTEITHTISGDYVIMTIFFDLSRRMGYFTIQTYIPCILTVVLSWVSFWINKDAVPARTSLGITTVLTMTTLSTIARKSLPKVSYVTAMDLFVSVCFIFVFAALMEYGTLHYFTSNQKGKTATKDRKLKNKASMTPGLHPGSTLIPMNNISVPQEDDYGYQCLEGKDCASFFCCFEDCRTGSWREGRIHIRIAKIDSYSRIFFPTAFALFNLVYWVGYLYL
Put plainly: Radioligand binding assay, [3H]RO7239181 competition, HEK293F membranes.

The next assay has as its target T2, h-GABAA α1β3γ2 (Homo sapiens, UniProt P14867+P18507).
T2 construct: expressed in transfected cells; host or cells: HEK293F cells, membranes
Put plainly: Radioligand binding assay, [3H]Flumazenil competition, HEK293F membranes. The conditions noted are these: for γ2/γ1 Selectivity Ratio: Ki α1β3γ2 (nM)/Ki α2β2γ1 (nM); for LogSel: Log[Ki α1β3γ2 (nM)/Ki α2β2γ1 (nM)]. In a few lines: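 [3H]Flumazenil competition binding on membranes from HEK293F cells transiently expressing human α1β3γ2 receptors. Incubation to equilibrium for 1 h at 4 °C, then filtration and scintillation counting. Ki is the mean of two determinations.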

Structures are written as SMILES.

For the molecule `Cc1nnc2n1-c1ccc(C(F)(F)F)c(Cl)c1C(c1c(F)cccc1F)=NC2` [Example 40, 7-chloro-6-(2,6-difluorophenyl)-1-methyl-8-(trifluoromethyl)-4H-[1,2,4]triazolo[4,3-a][1,4]benzodiazepine], the Ki at h-GABAA α1β2γ1 is 20.8 nM; on h-GABAA α1β3γ2 it was 1010 nM. The “γ2/γ1 Selectivity Ratio” value on h-GABAA α1β3γ2 (Table 1) and on h-GABAA α1β3γ2 (Table 3) was 37.5 each time. Besides, the results for the LogSel at h-GABAA α1β3γ2 (Table 1) and on h-GABAA α1β3γ2 (Table 3) were 1.57 and 1.6, respectively.

In the case of `Fc1cccnc1C1=NCc2nnc(-c3ccncn3)n2-c2ccc(Cl)c(Cl)c21` [Example 55, 7,8-dichloro-6-(3-fluoro-2-pyridyl)-1-pyrimidin-4-yl-4H-[1,2,4]triazolo[4,3-a][1,4]benzodiazepine], the inhibitory constant (Ki) at h-GABAA α1β2γ1 worked out at 133 nM; at h-GABAA α1β3γ2 it was 1720 nM. For the same molecule, the “γ2/γ1 Selectivity Ratio” value on h-GABAA α1β3γ2 (Table 1) came out at 92.9. On h-GABAA α1β3γ2 (Table 1), this molecule yielded a LogSel of 1.97.

`Fc1cccc(F)c1C1=NCc2nnc(-c3cccnn3)n2-c2ccc(Br)c(Br)c21` [Example 42, 7,8-dibromo-6-(2,6-difluorophenyl)-1-pyridazin-3-yl-4H-[1,2,4]triazolo[4,3-a][1,4]benzodiazepine] returned an inhibitory constant (Ki) on h-GABAA α1β2γ1 of 7.2 nM. Moreover, the Ki on h-GABAA α1β3γ2 came out at 243 nM. At h-GABAA α1β3γ2 (Table 1), the “γ2/γ1 Selectivity Ratio” value stood at 44.2 and the LogSel is listed as 1.65.

In the case of `Fc1ccccc1C1=NCc2nncn2-c2ccc(Br)c(Cl)c21` [Example 8, 8-bromo-7-chloro-6-(2-fluorophenyl)-4H-[1,2,4]triazolo[4,3-a][1,4]benzodiazepine], the Ki on h-GABAA α1β2γ1 was determined as 43.8 nM. Besides, the affinity at h-GABAA α1β3γ2 corresponds to a Ki of 576 nM. Besides, at h-GABAA α1β3γ2 (Table 1), the “γ2/γ1 Selectivity Ratio” value is listed as 12.1 and the LogSel is 1.08.

In the case of `Fc1cccnc1C1=NCc2nnc(-c3ccncn3)n2-c2ccc(Br)c(Cl)c21` [Example 46, 8-bromo-7-chloro-6-(3-fluoro-2-pyridyl)-1-pyrimidin-4-yl-4H-[1,2,4]triazolo[4,3-a][1,4]benzodiazepine], the Ki on h-GABAA α1β2γ1 is 60.5 nM. The molecule further had an inhibitory constant (Ki) on h-GABAA α1β3γ2 of 1160 nM. In addition, on h-GABAA α1β3γ2 (Table 1), the “γ2/γ1 Selectivity Ratio” value is 45.8 and the LogSel is 1.66.

Molecule `Cc1nnc2n1-c1ccc(C(F)F)c(Cl)c1C(c1c(F)cccc1F)=NC2` [Example 25, 7-chloro-8-(difluoromethyl)-6-(2,6-difluorophenyl)-1-methyl-4H-[1,2,4]triazolo[4,3-a][1,4]benzodiazepine] yielded an inhibition constant Ki at h-GABAA α1β2γ1 of 68.6 nM. On h-GABAA α1β3γ2, this molecule displayed a Ki of 1190 nM. Further, at h-GABAA α1β3γ2 (Table 1), the “γ2/γ1 Selectivity Ratio” value was found to be 24.2 and the LogSel was 1.38.

For `Fc1ccccc1C1=NCc2nnc(-c3cccnn3)n2-c2ccc(Cl)c(Cl)c21` [Example 10, 7,8-dichloro-6-(2-fluorophenyl)-1-pyridazin-3-yl-4H-[1,2,4]triazolo[4,3-a][1,4]benzodiazepine], the inhibition constant Ki at h-GABAA α1β2γ1 came out at 25.8 nM; at h-GABAA α1β3γ2, 645 nM. For the same molecule, the “γ2/γ1 Selectivity Ratio” value on h-GABAA α1β3γ2 (Table 1) stood at 67.7. The molecule also yielded a LogSel on h-GABAA α1β3γ2 (Table 1) of 1.83.

On h-GABAA α1β2γ1, `Cc1nnc2n1-c1ccc(C3CC3)c(Cl)c1C(c1c(F)cccc1F)=NC2` [Example 6, 7-chloro-8-cyclopropyl-6-(2,6-difluorophenyl)-1-methyl-4H-[1,2,4]triazolo[4,3-a][1,4]benzodiazepine] displayed an inhibition constant Ki of 237 nM. The same molecule yielded an inhibitory constant (Ki) at h-GABAA α1β3γ2 of 965 nM. Moreover, at h-GABAA α1β3γ2 (Table 1), the “γ2/γ1 Selectivity Ratio” value is reported as 10.3 and the LogSel is 1.01.

Turning to `Cc1nnc2n1-c1ccc(I)c(Cl)c1C(c1c(F)cccc1F)=NC2` [Example 41, 7-chloro-6-(2,6-difluorophenyl)-8-iodo-1-methyl-4H-[1,2,4]triazolo[4,3-a][1,4]benzodiazepine], on h-GABAA α1β2γ1, the Ki worked out at 4.8 nM. For the same molecule, affinity on h-GABAA α1β3γ2 was put at a Ki of 121 nM. Moreover, at h-GABAA α1β3γ2 (Table 1), the “γ2/γ1 Selectivity Ratio” value is 21.9 and the LogSel came out at 1.34.

The molecule `Fc1cccnc1C1=NCc2nncn2-c2ccc(Br)c(Cl)c21` [Example 29, 8-bromo-7-chloro-6-(3-fluoro-2-pyridyl)-4H-[1,2,4]triazolo[4,3-a][1,4]benzodiazepine] yielded a Ki on h-GABAA α1β2γ1 of 66.2 nM. On h-GABAA α1β3γ2, this molecule returned a Ki of 789 nM. On h-GABAA α1β3γ2 (Table 1), the “γ2/γ1 Selectivity Ratio” value was 16.6 and the LogSel is 1.22.

`Fc1cccc(F)c1C1=NCc2nnc(-c3cccnn3)n2-c2ccc(I)c(Cl)c21` [Example 39, 7-chloro-6-(2,6-difluorophenyl)-8-iodo-1-pyridazin-3-yl-4H-[1,2,4]triazolo[4,3-a][1,4]benzodiazepine] gave an inhibition constant Ki at h-GABAA α1β2γ1 of 4.7 nM. On h-GABAA α1β3γ2, the inhibition constant (Ki) amounted to 360 nM. In addition, on h-GABAA α1β3γ2 (Table 1), the “γ2/γ1 Selectivity Ratio” value was 85.8 and the LogSel is recorded as 1.93.

At h-GABAA α1β2γ1, `Cn1cc(-c2nnc3n2-c2ccc(C(F)(F)F)c(Cl)c2C(c2ncccc2F)=NC3)cn1` [Example 70, 7-chloro-6-(3-fluoro-2-pyridyl)-1-(1-methylpyrazol-4-yl)-8-(trifluoromethyl)-4H-[1,2,4]triazolo[4,3-a][1,4]benzodiazepine] gave an inhibition constant Ki of 275 nM. This molecule came in with a Ki on h-GABAA α1β3γ2 of 5980 nM. At h-GABAA α1β3γ2 (Table 1), the “γ2/γ1 Selectivity Ratio” value turned out to be 144.5 and the LogSel worked out at 2.16.

For `COCCc1nnc2n1-c1ccc(Cl)c(Cl)c1C(c1c(F)cccc1F)=NC2` [Example 19, 7,8-dichloro-6-(2,6-difluorophenyl)-1-(2-methoxyethyl)-4H-[1,2,4]triazolo[4,3-a][1,4]benzodiazepine], the Ki came to 43.9 nM at h-GABAA α1β2γ1 and 829 nM at h-GABAA α1β3γ2. Also, at h-GABAA α1β3γ2 (Table 1), the “γ2/γ1 Selectivity Ratio” value is on record as 31.9. The LogSel at h-GABAA α1β3γ2 (Table 1) came out at 1.50.

On to `Fc1cccc(F)c1C1=NCc2nnc(-c3ccncn3)n2-c2ccc(Cl)c(Cl)c21` [Example 12, 7,8-dichloro-6-(2,6-difluorophenyl)-1-pyrimidin-4-yl-4H-[1,2,4]triazolo[4,3-a][1,4]benzodiazepine], for which the values for the Ki at h-GABAA α1β2γ1 and at h-GABAA α1β3γ2 were 17.6 nM and 490 nM, respectively. Besides, the “γ2/γ1 Selectivity Ratio” value at h-GABAA α1β3γ2 (Table 1) came to 47.3. At h-GABAA α1β3γ2 (Table 1), this molecule registered a LogSel of 1.67.

As to `COc1ccc2c(c1Cl)C(c1c(F)cccc1F)=NCc1nnc(C3CC3)n1-2` [Example 79, 7-chloro-1-cyclopropyl-6-(2,6-difluorophenyl)-8-methoxy-4H-[1,2,4]triazolo[4,3-a][1,4]benzodiazepine], affinity on h-GABAA α1β2γ1 was put at a Ki of 80.1 nM. The Ki on h-GABAA α1β3γ2 is 914 nM. In addition, at h-GABAA α1β3γ2 (Table 1), the “γ2/γ1 Selectivity Ratio” value is 17.8 and the LogSel stood at 1.25.

As to `COc1ccc2c(c1Cl)C(c1c(F)cccc1F)=NCc1nnc(-c3cccnn3)n1-2` [Example 57, 7-chloro-6-(2,6-difluorophenyl)-8-methoxy-1-pyridazin-3-yl-4H-[1,2,4]triazolo[4,3-a][1,4]benzodiazepine], the Ki on h-GABAA α1β2γ1 came out at 170 nM. Moreover, the Ki on h-GABAA α1β3γ2 came out at 2110 nM. For the same molecule, on h-GABAA α1β3γ2 (Table 1), the “γ2/γ1 Selectivity Ratio” value was found to be 36.5 and the LogSel came to 1.56.

In the case of `Fc1cccc(F)c1C1=NCc2nnc(-c3ccncn3)n2-c2ccc(Br)c(Br)c21` [Example 43, 7,8-dibromo-6-(2,6-difluorophenyl)-1-pyrimidin-4-yl-4H-[1,2,4]triazolo[4,3-a][1,4]benzodiazepine], the Ki on h-GABAA α1β2γ1 amounted to 8.4 nM. Also, the inhibitory constant (Ki) at h-GABAA α1β3γ2 came to 510 nM. Moreover, at h-GABAA α1β3γ2 (Table 1), the “γ2/γ1 Selectivity Ratio” value turned out to be 88.5 and the LogSel is recorded as 1.95.

As for `Fc1cccnc1C1=NCc2nnc(-c3cccnn3)n2-c2ccc(Cl)c(Cl)c21` [Example 54, 7,8-dichloro-6-(3-fluoro-2-pyridyl)-1-pyridazin-3-yl-4H-[1,2,4]triazolo[4,3-a][1,4]benzodiazepine], the inhibition constant (Ki) worked out at 121 nM on h-GABAA α1β2γ1 and 2070 nM on h-GABAA α1β3γ2. On h-GABAA α1β3γ2 (Table 1), the “γ2/γ1 Selectivity Ratio” value was 68.7. The molecule also had a LogSel at h-GABAA α1β3γ2 (Table 1) of 1.84.

For orientation: Ki means the dissociation constant of the complex between target and ligand, obtained from inhibition or displacement. A lower Ki goes with a stronger hold on the target.
